{
  "source": "patent US20200278355A1",
  "about": "“CONJUGATED PROTEINS AND USES THEREOF” (THE SCRIPPS RESEARCH INSTITUTE, priority 2017, published 2020)",
  "key": {"NUDT8": {"molecular_target": "T1, NUDT8 (Homo sapiens, UniProt Q8WV74)", "T1 construct": "H460 cells or H460 cells expressing luciferase in a 10 cm plate were incubated with indicated compounds; endogenous in cells; host or cells: H460", "T1 sequence (Q8WV74 whole entry)": "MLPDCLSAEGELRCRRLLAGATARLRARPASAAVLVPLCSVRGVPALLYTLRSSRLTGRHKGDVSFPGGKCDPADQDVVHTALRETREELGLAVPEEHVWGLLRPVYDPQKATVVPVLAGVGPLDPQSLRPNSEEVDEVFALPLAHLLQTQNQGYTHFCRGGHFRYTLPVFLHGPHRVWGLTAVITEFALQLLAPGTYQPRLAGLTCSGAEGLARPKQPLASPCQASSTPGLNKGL", "assay": "ABPP-SILAC BPK-29yne competition in H460 cells: NUDT8", "type": "cell-based", "settings": "20 μM", "description": "(§1) Isotopically labeled H460 cell lines were generated as described above. Light and heavy cells were treated with compounds (20 μM) or DMSO, respectively, for 3 h, followed by labeling with the BPK-29yne (5 μM) for 30 min. Cells were washed once ice-cold PBS and lysed in 1% Triton 100-X dissolved in PBS with protease inhibitors (Sigma) by sonication. Lysate was adjusted to 1.5 mg ml^−1 in 500 μL. Samples were conjugated by CuAAC to Biotin-PEG4-azide (5 μL of 10 mM stocks in DMSO, final concentration=100 μM). CuAAC “click” mix contained TCEP, TBTA ligand and CuSO4 as detailed for isoTOP-ABPP sample preparation. Samples were further processed as detailed in: isoTOP-ABPP streptavidin enrichment and isoTOP-ABPP trypsin TEV digestion with the following exception: after overnight incubation at 37° C. with trypsin, tryptic digests were separated from the beads with Micro Bio-Spin columns (Bio-Rad) by centrifugation (1,000×g, 1 min). Beads were rinsed once with water (200 μL) and combined with tryptic digests. […]\n(§2) The MS2 spectra data were extracted and searched using RAW Convertor and ProLuCID algorithm as described in isoTOP-ABPP peptide and protein quantification. […] Ratios of heavy/light (DMSO/test compound) peaks were calculated using in-house CIMAGE software. […] The mean R values and standard deviation for multiple biological experiments were calculated from the average ratios from each replicate. […]"}, "TXNRD1": {"molecular_target": "T2, TXNRD1 (Homo sapiens, UniProt Q16881)", "T2 construct": "endogenous in cells; host or cells: H460", "T2 sequence (Q16881 whole entry)": "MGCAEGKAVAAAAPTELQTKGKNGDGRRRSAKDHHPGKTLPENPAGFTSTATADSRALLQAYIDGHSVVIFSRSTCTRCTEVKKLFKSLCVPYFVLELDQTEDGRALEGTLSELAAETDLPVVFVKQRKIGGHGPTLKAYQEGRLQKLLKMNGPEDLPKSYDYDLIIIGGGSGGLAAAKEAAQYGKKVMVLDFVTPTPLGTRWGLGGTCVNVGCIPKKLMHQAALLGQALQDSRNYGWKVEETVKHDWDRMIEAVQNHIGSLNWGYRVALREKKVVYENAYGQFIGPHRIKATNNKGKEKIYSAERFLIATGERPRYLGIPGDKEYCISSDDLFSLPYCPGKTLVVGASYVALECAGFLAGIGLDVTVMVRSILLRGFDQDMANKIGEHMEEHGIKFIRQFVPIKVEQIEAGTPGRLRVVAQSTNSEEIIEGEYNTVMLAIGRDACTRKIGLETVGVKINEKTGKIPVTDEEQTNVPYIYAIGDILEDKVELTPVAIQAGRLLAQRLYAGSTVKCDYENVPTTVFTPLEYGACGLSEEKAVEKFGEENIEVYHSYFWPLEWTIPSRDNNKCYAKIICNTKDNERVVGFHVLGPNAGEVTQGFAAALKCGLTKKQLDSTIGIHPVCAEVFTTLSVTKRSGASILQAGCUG", "assay": "ABPP-SILAC BPK-29yne competition in H460 cells: TXNRD1", "type": "cell-based", "settings": "20 μM", "description": "as §1, §2"}, "NR0B1": {"molecular_target": "T3, NR0B1 (Homo sapiens, UniProt P51843)", "T3 construct": "H460 cells or H460 cells expressing luciferase in a 10 cm plate were incubated with indicated compounds; endogenous in cells; host or cells: H460 (NSCLC, KEAP1-mutant)", "T3 sequence (P51843 1-470)": "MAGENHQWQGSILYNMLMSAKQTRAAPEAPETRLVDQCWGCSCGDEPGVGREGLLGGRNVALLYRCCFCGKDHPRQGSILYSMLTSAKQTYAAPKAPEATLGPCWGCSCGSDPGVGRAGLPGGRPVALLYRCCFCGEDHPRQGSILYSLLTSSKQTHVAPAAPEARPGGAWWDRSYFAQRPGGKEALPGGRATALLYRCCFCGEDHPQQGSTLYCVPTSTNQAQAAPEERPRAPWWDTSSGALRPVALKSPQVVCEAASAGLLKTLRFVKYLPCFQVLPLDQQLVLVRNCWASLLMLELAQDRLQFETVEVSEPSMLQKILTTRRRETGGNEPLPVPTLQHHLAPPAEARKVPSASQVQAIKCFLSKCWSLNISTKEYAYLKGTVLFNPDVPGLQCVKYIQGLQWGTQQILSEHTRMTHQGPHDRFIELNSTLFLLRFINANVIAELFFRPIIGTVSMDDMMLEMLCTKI", "assay": "ABPP-SILAC BPK-29yne competition in H460 cells: NR0B1", "type": "cell-based", "settings": "20 μM", "description": "as §1, §2"}, "[1]": {"system": "CRY1, DEPDC1, and CPLX2 expression in KEAP1-WT H2009 cells", "assay": "Gene expression changes (qPCR) in KEAP1-WT NSCLC cells", "type": "cell-based, human"}, "NT5DC1": {"molecular_target": "T4, NT5DC1 (Homo sapiens, UniProt Q5TFE4)", "T4 construct": "Isotopically labeled H460 cell lines were generated as described above; endogenous in cells; host or cells: H460 (SILAC-labelled)", "T4 sequence (Q5TFE4 whole entry)": "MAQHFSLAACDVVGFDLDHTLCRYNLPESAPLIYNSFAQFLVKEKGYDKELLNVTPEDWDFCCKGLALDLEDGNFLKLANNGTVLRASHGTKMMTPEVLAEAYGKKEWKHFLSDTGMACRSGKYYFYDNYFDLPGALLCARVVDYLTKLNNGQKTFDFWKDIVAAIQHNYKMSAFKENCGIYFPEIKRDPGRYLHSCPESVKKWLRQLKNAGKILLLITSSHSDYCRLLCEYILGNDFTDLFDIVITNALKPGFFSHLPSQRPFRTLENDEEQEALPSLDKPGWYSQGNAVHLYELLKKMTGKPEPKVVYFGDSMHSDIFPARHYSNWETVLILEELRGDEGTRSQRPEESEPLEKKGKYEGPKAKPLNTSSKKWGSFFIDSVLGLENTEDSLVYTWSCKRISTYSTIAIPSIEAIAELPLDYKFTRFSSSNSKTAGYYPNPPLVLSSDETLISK", "assay": "ABPP-SILAC BPK-29yne competition in H460 cells: NT5DC1", "type": "cell-based", "settings": "20 μM", "description": "as §1, §2"}},
  "data": [
    {"smiles": "O=C(c1ccc(N2CCOCC2)cc1)N1CCCC(N(Cc2ccccc2)C(=O)CCl)CC1", "note": "(centres unmarked) [BPK-29, N-benzyl-2-chloro-N-(1-(4-morpholinobenzoyl)azepan-4-yl)acetamide]", "values": [
      {"measurement": "BPK-29-competed BPK-29yne analysis", "setting": "NUDT8", "result": "Yes (Competed defined as showing R value ≥ 2.5 at 20 μM of test compound)"},
      {"measurement": "BPK-29-competed BPK-29yne analysis", "setting": "TXNRD1", "result": "Yes (Competed defined as showing R value ≥ 2.5 at 20 μM of test compound)"},
      {"measurement": "BPK-29-competed BPK-29yne analysis", "setting": "NR0B1", "result": "Yes (Competed defined as showing R value ≥ 2.5 at 20 μM of test compound)"},
      {"measurement": "gene expression changes (CRY1, DEPDC1, CPLX2)", "setting": "[1]", "result": "not observed"},
      {"measurement": "BPK-29-competed BPK-29yne analysis", "setting": "NT5DC1", "result": "Yes (Competed defined as showing R value ≥ 2.5 at 20 μM of test compound)"}
    ]}
  ]
}
